Results from patent US10080743B2, “Isoxazole derivatives as FXR agonists and methods of use thereof” (Enanta Pharmaceuticals, Inc., priority 2016, dated 2018).

Target: T1, human FXR (NR1H4) (Homo sapiens, UniProt Q96RI1)
T1 construct: host or cells: CHO (Chinese hamster ovary) cells
T1 sequence (Q96RI1 1-486): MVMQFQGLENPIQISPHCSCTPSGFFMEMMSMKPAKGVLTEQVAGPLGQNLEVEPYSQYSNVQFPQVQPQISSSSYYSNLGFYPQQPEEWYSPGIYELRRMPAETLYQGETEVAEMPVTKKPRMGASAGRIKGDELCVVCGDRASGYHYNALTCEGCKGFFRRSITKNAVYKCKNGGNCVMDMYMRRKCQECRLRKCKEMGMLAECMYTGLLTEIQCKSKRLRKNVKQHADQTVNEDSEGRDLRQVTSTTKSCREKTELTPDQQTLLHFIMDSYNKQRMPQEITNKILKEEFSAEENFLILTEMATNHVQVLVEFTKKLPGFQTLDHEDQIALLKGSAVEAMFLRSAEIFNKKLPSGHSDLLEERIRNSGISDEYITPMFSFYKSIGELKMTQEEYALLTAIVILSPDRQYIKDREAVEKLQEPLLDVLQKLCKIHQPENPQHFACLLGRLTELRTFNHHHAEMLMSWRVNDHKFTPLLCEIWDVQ
Test: Human FXR (NR1H4) Assay (Gal4 promoter driven luciferase reporter transactivation, Indigo Bioscience kit IB00601)
Format: cell-based
Conditions: for EC50: Human FXR (NR1H4) reporter assay, CHO cells expressing human NR1H4, potency ranges; for Efficacy (%): efficacy normalized to CDCA set as 100%
Excerpt: Human FXR (NR1H4) Assay Determination of a ligand mediated Gal4 promoter driven transactivation to quantify ligand binding mediated activation of FXR. FXR Reporter Assay kit purchased from Indigo Bioscience (Catalogue number: IB00601) to determine the potency and efficacy of compound developed by Enanta that can induce FXR activation. The principle application of this reporter assay system is to quantify functional activity of human FXR. The assay utilizes non-human mammalian cells, CHO (Chinese hamster ovary) cells engineered to express human NR1H4 protein (referred to as FXR). Reporter cells also incorporate the cDNA encoding beetle luciferase which catalyzes the substrates and yields photon emission. Luminescence intensity of the reaction is quantified using a plate-reading luminometer, Envision. Reporter Cells include the luciferase reporter gene functionally linked to an FXR responsive promoter. Thus, quantifying changes in luciferase expression in the treated reporter cells provides a sensitive surrogate measure of the changes in FXR activity. […] The assay is according to the manufacturer's instructions. […] Retrieve Reporter Cells from −80° C. storage. Perform a rapid thaw of the frozen cells by transferring a 10 ml volume of 37° C. cell recovery medium into the tube of frozen cells. Recap the tube of Reporter Cells and immediately place it in a 37° C. water bath for 5-10 minutes. Retrieve the tube of Reporter Cell Suspension from the water bath. Sanitize the outside surface of the tube with a 70% alcohol swab, and then transfer it into the cell culture hood. Dispense 90 μl of cell suspension into each well of the 96-well Assay Plate. Transfer the plate into 37° C. incubator, allowing the cells adherent to the bottom of the well. Dilute compounds in Dilution Plate (DP), and administrate to cells at Assay Plate (AP). DMSO content of the samples was kept at 0.2%. Cells were incubated for additional 22 hours before luciferase activities were measured. Thirty minutes before intending to quantify FXR activity, remove Detection Substrate and Detection Buffer from the refrigerator and place them in a low-light area so that they may equilibrate to room temperature. Remove the plate's lid and discard all media contents by ejecting it into an appropriate waste container. Gently tap the inverted plate onto a clean absorbent paper towel to remove residual droplets. Cells will remain tightly adhered to well bottoms. Add 100 μl of luciferase detection reagent to each well of the assay plate. Allow the assay plate to rest at room temperature for at least 5 minutes following the addition of LDR. Set the instrument (Envision) to perform a single 5 second “plate shake” prior to reading the first assay well. Read time may be 0.5 second (500 mSec) per well.

Row | EC50 [nM] | Efficacy (%) | SMILES
1 | 100 to 1000 | 1.3 | CC(C)c1onc(-c2c(Cl)cccc2Cl)c1COc1ccc(-c2ccc3c(C(=O)NS(=O)(=O)N(C)C)cccc3c2)cc1 [Compound 90]
2 | 100 to 1000 | 220 | CC(C)c1onc(-c2c(Cl)cccc2Cl)c1COc1ccc(-c2ccc3c(C(=O)O)cccc3c2)cc1 [Compound (1), reference compound]
3 | 100 to 1000 | 1.2 | CC(C)c1onc(-c2c(Cl)cccc2Cl)c1COc1ccc(-c2ccc3c(NC(=O)NS(=O)(=O)C4CC4)cccc3c2)cc1 [Compound 11]
4 | 100 to 1000 | 117 | CC(C)c1onc(-c2c(Cl)cccc2Cl)c1COc1ccc(-c2ccc3c(NC(=O)NS(=O)(=O)c4ccccc4)cccc3c2)cc1 [Compound 16]
